Test results reported in ChEMBL document CHEMBL4507278 (2021).

How the values were obtained:
[1] = system: Mast/stem cell growth factor receptor Kit (Homo sapiens), P10721 [D816V]; conditions: Compound concentration 1000.0 nM
[2] = target: Glycogen synthase kinase-3 alpha (Homo sapiens) (UniProt P49840); conditions: Compound concentration 1000.0 nM
[3] = target: Mitogen-activated protein kinase kinase kinase kinase 1 (Homo sapiens) (UniProt Q92918); conditions: Compound concentration 1000.0 nM
[4] = target: Rhodopsin kinase GRK7 (Homo sapiens) (UniProt Q8WTQ7); conditions: Compound concentration 1000.0 nM
[5] = system: Mast/stem cell growth factor receptor Kit (Homo sapiens), P10721 [V559D,V654A]; conditions: Compound concentration 1000.0 nM
Chain of Mast/stem cell growth factor receptor Kit (Homo sapiens), P10721 [V559D,V654A] (P10721 whole entry V559D/V654A): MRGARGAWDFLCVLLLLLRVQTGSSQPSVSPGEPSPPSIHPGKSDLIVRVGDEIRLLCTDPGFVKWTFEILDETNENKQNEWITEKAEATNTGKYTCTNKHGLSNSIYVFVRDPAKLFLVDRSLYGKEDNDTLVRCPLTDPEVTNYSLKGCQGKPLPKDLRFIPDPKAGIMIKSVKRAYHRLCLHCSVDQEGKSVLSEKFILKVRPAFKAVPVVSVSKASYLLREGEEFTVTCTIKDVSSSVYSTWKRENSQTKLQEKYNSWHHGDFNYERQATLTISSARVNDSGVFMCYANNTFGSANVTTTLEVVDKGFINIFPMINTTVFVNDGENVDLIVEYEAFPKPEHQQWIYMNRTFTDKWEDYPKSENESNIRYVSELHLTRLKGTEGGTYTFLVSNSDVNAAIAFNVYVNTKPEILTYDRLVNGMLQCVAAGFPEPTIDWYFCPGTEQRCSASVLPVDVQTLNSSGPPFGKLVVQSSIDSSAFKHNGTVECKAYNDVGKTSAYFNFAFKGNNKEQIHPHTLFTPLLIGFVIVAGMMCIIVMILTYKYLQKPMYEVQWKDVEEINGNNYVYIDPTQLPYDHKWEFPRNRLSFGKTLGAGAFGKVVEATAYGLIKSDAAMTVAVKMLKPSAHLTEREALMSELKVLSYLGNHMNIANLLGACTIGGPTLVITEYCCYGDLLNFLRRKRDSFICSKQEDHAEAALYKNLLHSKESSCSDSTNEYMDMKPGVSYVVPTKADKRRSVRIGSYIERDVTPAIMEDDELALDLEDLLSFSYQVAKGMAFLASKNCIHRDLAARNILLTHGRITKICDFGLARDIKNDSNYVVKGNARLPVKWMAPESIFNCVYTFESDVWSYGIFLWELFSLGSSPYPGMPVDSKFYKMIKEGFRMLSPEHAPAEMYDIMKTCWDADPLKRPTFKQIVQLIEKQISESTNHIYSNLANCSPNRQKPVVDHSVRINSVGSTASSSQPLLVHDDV

[6] = target: Eukaryotic translation initiation factor 2-alpha kinase 1 (Homo sapiens) (UniProt Q9BQI3); conditions: Compound concentration 1000.0 nM
[7] = target: T1, Alpha-1D adrenergic receptor (Homo sapiens) (UniProt P25100); conditions: Compound concentration 10.0 uM
T1 sequence (whole entry): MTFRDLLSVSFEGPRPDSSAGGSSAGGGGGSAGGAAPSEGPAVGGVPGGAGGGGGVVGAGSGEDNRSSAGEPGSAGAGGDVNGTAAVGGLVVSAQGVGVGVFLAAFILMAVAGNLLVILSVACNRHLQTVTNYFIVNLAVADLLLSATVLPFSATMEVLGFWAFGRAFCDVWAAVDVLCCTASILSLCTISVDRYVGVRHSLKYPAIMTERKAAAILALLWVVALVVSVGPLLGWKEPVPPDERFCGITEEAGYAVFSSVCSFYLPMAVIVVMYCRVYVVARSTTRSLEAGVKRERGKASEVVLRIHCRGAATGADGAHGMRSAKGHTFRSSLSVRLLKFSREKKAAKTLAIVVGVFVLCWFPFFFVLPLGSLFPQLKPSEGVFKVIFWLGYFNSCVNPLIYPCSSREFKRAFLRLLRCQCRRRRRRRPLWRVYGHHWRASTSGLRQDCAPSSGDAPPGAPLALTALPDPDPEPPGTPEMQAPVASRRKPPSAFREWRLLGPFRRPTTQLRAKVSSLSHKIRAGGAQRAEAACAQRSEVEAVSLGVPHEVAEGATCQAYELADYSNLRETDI

[8] = target: Fibroblast growth factor receptor 1 (Homo sapiens) (UniProt P11362); conditions: Compound concentration 1000.0 nM
Chain of Fibroblast growth factor receptor 1 (Homo sapiens) (P11362 22-822 limits assumed): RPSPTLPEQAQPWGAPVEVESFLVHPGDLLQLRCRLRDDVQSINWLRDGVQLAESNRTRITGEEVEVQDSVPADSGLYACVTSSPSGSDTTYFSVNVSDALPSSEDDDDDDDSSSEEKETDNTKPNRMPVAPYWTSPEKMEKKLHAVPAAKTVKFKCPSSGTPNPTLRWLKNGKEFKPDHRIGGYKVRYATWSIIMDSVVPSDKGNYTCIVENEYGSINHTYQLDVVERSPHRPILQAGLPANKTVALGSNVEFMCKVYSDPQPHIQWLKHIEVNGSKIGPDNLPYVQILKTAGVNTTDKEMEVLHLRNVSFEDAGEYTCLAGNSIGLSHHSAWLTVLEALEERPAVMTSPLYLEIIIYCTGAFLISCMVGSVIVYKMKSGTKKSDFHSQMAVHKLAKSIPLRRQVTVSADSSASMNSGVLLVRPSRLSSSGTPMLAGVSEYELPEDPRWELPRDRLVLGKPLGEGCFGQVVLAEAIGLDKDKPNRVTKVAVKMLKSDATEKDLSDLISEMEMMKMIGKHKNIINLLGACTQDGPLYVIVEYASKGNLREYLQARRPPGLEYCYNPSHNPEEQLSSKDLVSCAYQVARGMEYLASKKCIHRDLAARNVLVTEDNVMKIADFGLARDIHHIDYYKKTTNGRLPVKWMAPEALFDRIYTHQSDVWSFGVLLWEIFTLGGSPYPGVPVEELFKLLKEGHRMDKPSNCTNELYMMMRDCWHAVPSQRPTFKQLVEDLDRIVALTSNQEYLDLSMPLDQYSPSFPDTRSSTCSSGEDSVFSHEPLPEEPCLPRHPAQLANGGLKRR

[9] = target: Peripheral plasma membrane protein CASK (Homo sapiens) (UniProt O14936); conditions: Compound concentration 1000.0 nM
[10] = target: Calcium-dependent protein kinase 1 (Plasmodium falciparum) (UniProt P62344); conditions: Compound concentration 1000.0 nM
[11] = target: Cytoplasmic tyrosine-protein kinase BMX (Homo sapiens) (UniProt P51813); conditions: Compound concentration 1000.0 nM
[12] = system: Tyrosine-protein kinase ABL1 (Homo sapiens), P00519 [F317L]; conditions: Compound concentration 1000.0 nM
[13] = target: T2, D(4) dopamine receptor (Homo sapiens) (UniProt P21917); conditions: Compound concentration 10.0 uM
T2 sequence (whole entry): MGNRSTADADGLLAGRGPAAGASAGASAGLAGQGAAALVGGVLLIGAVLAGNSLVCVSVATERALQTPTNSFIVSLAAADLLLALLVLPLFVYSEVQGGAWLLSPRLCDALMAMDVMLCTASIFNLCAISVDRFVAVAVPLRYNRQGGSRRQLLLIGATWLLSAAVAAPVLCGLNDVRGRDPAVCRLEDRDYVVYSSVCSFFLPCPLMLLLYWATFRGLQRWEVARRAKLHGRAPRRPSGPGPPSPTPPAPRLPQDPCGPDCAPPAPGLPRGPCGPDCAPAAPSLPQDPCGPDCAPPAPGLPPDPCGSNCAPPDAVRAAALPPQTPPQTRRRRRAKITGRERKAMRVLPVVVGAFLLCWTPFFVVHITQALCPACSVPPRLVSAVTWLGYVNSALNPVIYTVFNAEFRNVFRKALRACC

[14] = target: Phosphorylase b kinase regulatory subunit alpha, liver isoform (Homo sapiens) (UniProt P46019); conditions: Compound concentration 1000.0 nM
[15] = target: NT-3 growth factor receptor (Homo sapiens) (UniProt Q16288); conditions: Compound concentration 1000.0 nM
[16] = target: Mitogen-activated protein kinase 13 (Homo sapiens) (UniProt O15264); conditions: Compound concentration 1000.0 nM
[17] = target: Proto-oncogene tyrosine-protein kinase receptor Ret (Homo sapiens) (UniProt P07949); conditions: Compound concentration 1000.0 nM
Chain of Proto-oncogene tyrosine-protein kinase receptor Ret (Homo sapiens) (P07949 whole entry): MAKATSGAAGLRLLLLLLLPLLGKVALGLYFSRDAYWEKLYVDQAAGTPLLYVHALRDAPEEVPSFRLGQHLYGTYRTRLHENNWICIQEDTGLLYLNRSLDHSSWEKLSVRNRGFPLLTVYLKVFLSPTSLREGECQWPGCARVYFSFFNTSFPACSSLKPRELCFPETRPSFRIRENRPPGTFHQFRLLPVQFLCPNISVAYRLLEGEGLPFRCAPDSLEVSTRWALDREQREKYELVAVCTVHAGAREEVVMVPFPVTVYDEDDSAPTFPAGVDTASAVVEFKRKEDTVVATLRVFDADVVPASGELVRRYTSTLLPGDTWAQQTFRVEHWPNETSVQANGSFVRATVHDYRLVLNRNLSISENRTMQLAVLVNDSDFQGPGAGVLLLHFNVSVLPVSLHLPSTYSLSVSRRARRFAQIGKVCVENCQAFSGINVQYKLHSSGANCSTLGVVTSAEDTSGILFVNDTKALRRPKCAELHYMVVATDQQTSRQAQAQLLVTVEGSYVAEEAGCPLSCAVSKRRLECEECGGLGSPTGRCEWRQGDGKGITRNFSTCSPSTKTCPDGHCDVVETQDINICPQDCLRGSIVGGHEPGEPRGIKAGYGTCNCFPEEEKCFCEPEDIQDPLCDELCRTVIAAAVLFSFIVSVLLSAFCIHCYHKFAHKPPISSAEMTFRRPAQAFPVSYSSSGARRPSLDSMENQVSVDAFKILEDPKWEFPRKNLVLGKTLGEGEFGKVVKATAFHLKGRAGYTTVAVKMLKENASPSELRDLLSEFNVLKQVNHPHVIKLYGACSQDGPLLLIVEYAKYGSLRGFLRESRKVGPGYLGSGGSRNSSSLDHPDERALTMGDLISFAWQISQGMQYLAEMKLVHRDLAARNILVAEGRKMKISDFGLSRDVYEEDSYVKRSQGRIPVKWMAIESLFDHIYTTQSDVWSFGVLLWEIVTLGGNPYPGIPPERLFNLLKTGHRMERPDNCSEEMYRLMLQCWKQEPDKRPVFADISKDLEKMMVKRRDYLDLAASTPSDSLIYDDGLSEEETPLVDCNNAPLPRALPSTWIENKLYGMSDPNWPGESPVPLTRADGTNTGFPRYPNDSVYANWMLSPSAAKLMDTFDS

[18] = target: Calcium/calmodulin-dependent protein kinase type II subunit gamma (Homo sapiens) (UniProt Q13555); conditions: Compound concentration 1000.0 nM
[19] = system: Phosphatidylinositol 4,5-bisphosphate 3-kinase catalytic subunit alpha isoform (Homo sapiens), P42336 [E542K]; conditions: Compound concentration 1000.0 nM
[20] = system: Tyrosine-protein kinase ABL1 (Homo sapiens), P00519 [Q252H]; conditions: Compound concentration 1000.0 nM
[21] = system: Phosphatidylinositol 4,5-bisphosphate 3-kinase catalytic subunit alpha isoform (Homo sapiens), P42336 [Q546K]; conditions: Compound concentration 1000.0 nM
[22] = target: Mitogen-activated protein kinase kinase kinase 14 (Homo sapiens) (UniProt Q99558); conditions: Compound concentration 1000.0 nM
[23] = target: Serine/threonine-protein kinase Nek10 (Homo sapiens) (UniProt Q6ZWH5); conditions: Compound concentration 1000.0 nM
[24] = target: Calcium/calmodulin-dependent protein kinase kinase 1 (Homo sapiens) (UniProt Q8N5S9); conditions: Compound concentration 1000.0 nM
Chain of Calcium/calmodulin-dependent protein kinase kinase 1 (Homo sapiens) (Q8N5S9 whole entry, looked up): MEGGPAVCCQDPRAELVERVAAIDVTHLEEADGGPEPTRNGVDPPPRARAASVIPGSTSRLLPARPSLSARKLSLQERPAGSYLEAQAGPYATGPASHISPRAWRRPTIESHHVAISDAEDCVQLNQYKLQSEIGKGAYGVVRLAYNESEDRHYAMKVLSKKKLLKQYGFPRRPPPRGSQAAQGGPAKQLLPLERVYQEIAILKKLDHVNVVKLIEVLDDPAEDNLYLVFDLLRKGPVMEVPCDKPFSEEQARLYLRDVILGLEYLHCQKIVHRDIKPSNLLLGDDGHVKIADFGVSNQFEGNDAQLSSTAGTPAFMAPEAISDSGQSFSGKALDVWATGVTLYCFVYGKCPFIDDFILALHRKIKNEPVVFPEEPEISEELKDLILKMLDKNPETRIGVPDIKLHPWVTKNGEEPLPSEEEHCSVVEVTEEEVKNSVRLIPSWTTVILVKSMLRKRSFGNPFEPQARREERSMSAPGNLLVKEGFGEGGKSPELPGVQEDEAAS

[25] = target: Serine/threonine-protein kinase ULK3 (Homo sapiens) (UniProt Q6PHR2); conditions: Compound concentration 1000.0 nM
[26] = target: Serine/threonine-protein kinase ICK (Homo sapiens) (UniProt Q9UPZ9); conditions: Compound concentration 1000.0 nM
Chain of Serine/threonine-protein kinase ICK (Homo sapiens) (Q9UPZ9 whole entry): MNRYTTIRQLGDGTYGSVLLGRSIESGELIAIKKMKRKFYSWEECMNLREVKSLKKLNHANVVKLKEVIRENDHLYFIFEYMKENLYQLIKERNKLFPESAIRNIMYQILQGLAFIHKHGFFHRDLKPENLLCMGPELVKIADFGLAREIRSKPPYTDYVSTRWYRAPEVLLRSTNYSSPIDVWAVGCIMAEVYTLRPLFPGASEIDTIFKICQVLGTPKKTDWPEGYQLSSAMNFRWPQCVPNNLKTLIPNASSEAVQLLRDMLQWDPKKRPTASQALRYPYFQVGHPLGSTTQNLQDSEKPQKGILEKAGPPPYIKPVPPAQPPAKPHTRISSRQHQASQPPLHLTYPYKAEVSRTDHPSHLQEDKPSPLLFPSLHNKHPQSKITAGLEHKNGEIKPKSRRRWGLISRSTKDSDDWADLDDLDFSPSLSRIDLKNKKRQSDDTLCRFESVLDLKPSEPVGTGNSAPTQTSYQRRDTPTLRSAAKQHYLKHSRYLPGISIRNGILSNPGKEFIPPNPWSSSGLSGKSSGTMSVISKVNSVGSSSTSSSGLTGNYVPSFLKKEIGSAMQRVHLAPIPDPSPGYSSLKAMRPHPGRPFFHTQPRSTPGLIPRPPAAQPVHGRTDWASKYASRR

[27] = target: Phosphatidylinositol 5-phosphate 4-kinase type-2 gamma (Homo sapiens) (UniProt Q8TBX8); conditions: Compound concentration 1000.0 nM
[28] = target: Casein kinase I isoform gamma-2 (Homo sapiens) (UniProt P78368); conditions: Compound concentration 1000.0 nM
[29] = target: Dual specificity protein kinase CLK3 (Homo sapiens) (UniProt P49761); conditions: Compound concentration 1000.0 nM
[30] = target: GABA-A receptor; anion channel (Rattus norvegicus) (UniProt O09028+P15431+P18506+P18508+P19969+P20236+P23574+P23576+P28471+P28473+P30191+P62813+P63079+P63138+Q91ZM7+Q9ES14); conditions: Compound concentration 10.0 uM

Chain of Mitogen-activated protein kinase kinase kinase kinase 1 (Homo sapiens) (Q92918 whole entry, looked up): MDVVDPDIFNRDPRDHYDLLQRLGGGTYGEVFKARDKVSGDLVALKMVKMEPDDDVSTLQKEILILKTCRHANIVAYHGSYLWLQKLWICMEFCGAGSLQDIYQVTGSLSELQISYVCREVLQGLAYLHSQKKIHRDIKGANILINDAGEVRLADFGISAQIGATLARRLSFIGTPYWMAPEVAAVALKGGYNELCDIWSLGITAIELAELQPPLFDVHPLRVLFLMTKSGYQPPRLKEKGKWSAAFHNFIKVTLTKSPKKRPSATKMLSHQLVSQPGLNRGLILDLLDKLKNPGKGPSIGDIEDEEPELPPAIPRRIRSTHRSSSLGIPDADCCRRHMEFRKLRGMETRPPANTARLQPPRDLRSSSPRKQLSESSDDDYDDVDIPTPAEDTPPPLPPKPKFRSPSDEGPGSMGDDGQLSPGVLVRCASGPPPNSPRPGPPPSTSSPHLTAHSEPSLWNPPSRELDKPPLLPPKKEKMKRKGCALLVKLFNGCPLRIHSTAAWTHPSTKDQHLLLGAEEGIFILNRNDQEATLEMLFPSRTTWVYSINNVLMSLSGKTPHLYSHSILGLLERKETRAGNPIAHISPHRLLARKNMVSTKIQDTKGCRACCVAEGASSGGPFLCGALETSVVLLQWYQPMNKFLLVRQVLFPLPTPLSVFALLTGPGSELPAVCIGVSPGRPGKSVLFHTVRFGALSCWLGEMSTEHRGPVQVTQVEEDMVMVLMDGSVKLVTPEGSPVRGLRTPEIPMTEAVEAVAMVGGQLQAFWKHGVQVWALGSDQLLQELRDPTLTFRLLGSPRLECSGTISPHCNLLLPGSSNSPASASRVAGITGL
Chain of Mast/stem cell growth factor receptor Kit (Homo sapiens), P10721 [D816V] (P10721 whole entry D816V): as the sequence (P10721 whole entry V559D/V654A) above, with D559V, A654V, D816V counted along it

| Compound | residual activity [1] [%] | residual activity [2] [%] | residual activity [3] [%] | residual activity [4] [%] | residual activity [5] [%] | residual activity [6] [%] | inhibition [7] [%] | residual activity [8] [%] | residual activity [9] [%] | residual activity [10] [%] | residual activity [11] [%] | residual activity [12] [%] | inhibition [13] [%] | residual activity [14] [%] | residual activity [15] [%] | residual activity [16] [%] | residual activity [17] [%] | residual activity [18] [%] | residual activity [19] [%] | residual activity [20] [%] | also measured |
| --- | --- | --- | --- | --- | --- | --- | --- | --- | --- | --- | --- | --- | --- | --- | --- | --- | --- | --- | --- | --- | --- |
| CS(=O)(=O)NCC[C@H](NC(=O)c1cncc2c1cnn2-c1ccc(F)cc1)c1ccnc(S(C)(=O)=O)c1 [BI 9307] | 94 | 100 | 95 | 100 | 100 | 100 | -9.49 | 87 | 100 | 99 | 100 | 69 | -5.61 | 100 | 100 | 100 | 91 | 99 | 66 | 81 | residual activity [21]: 73%; residual activity [22]: 100%; residual activity [23]: 100%; residual activity [24]: 100%; residual activity [25]: 100%; residual activity [26]: 100%; residual activity [27]: 0%; residual activity [28]: 89%; residual activity [29]: 99%; inhibition [30]: 23.5% |
| CS(=O)(=O)c1cc(C2(NC(=O)c3cncc4c3cnn4-c3ccc(F)cc3)CC2)ccn1 [BI 639667] | 100 | 70 | 89 | 96 | 88 | 73 | -7.67 | 95 | 100 | 99 | 100 | 68 | -1.14 | 100 | 90 | 93 | 100 | 72 | 80 | 80 | residual activity [21]: 66%; residual activity [22]: 61%; residual activity [23]: 97%; residual activity [24]: 76%; residual activity [25]: 100%; residual activity [26]: 100%; residual activity [27]: 100%; residual activity [28]: 100%; residual activity [29]: 86%; inhibition [30]: 6.63% |
